Assays:
Assay type in all cases: biochemical
[1] = target: Escherichia coli MAT (eMAT) (Escherichia coli, UniProt P0A817); assay: MAT assay, turnover of S/Se-Met analogs to S(Se)AM analogs (RP-HPLC end point); conditions: 2 mM Met analog, 1 mM ATP, 5 μM MAT, pH 8, 4 h, 37° C.; average of two assays
Protocol: (§1) Standard uniform assay conditions (2 mM Met analog, 1 mM ATP, 5 μM MAT, 25 mM Tris, 5 mM MgCl2, 50 mM KCl, pH 8, 4 h) were adopted to facilitate this broad assessment. For the thermophilic counterpart (mMAT), reactions were conducted at 65° C., while all other reactions were incubated at 37° C. Production of SAM analogs was determined by an RP-HPLC end point assay to afford complete analysis of the desired SAM analog and/or any corresponding degradation products known to directly derive from the desired SAM analog intermediate. Putative SAM analog and SAM-derived degradative product formation was subsequently confirmed via high-resolution mass spectrometry (HRMS) analysis for all positive reactions (see Table 2).
(§2) To monitor MAT reactions, analytical RP HPLC employed a Luna C18 column (5 μm, 4.6 mm×250 mm; Phenomenex, Torrance, Calif., USA) [gradient of 10% B to 40% B over 15 min, 40% B to 75% B over 5 min (A=10 mM NaH2PO4, 5 mM octane sulfonic acid, pH was adjusted to 3.5 using phosphoric acid; B=acetonitrile) flow rate=1 mL min^−1; A254].
(§3) In vitro MAT reactions were conducted in a volume of 50 μl with 2 mM S/Se-alkylated analog (compounds 2-30), 1 mM ATP and 5 μM purified MAT in 25 mM Tris buffer pH 8.0, 5 mM MgCl2, 50 mM KCl for 4 h. The sMAT and mMAT reactions were conducted at 65° C. while hMATs and eMAT were incubated at 37° C. Reactions were quenched by adding an equal volume of methanol followed by centrifugation (10,000×g for 15 min) to remove the precipitated protein and product formation for each reaction was subsequently analyzed by RP-HPLC using Method D (FIG. 15, first column). For each reaction, percent yield was based upon the integration of species at 254 nm and calculated by dividing the integrated area of product and/or decomposed product by the sum of integrated area of product and/or decomposed product and the remaining substrate. The assays were repeated twice under identical conditions, and Table 2 (and FIG. 5) represents an average value of two assays. The inclusion of adenine and 5′-R-thio-5′-adenosine in these calculations is based upon the established SAM and ATP chemical decomposition pathways which indicate adenine and 5′-R-thio-5′-adenosine to only derive from SAM (not ATP). All putative products were subsequently confirmed by high resolution electrospray ionization (ESI) mass spectra with positive (+) and/or negative (−) mode.

[2] = target: T1, Sulfolobus solfataricus MAT (sMAT) (Saccharolobus solfataricus, UniProt Q980S9); conditions: 2 mM analog, 1 mM ATP, 5 μM sMAT, pH 8.0, 4 h at 65° C.; average of two assays
T1 sequence (Q980S9 1-404): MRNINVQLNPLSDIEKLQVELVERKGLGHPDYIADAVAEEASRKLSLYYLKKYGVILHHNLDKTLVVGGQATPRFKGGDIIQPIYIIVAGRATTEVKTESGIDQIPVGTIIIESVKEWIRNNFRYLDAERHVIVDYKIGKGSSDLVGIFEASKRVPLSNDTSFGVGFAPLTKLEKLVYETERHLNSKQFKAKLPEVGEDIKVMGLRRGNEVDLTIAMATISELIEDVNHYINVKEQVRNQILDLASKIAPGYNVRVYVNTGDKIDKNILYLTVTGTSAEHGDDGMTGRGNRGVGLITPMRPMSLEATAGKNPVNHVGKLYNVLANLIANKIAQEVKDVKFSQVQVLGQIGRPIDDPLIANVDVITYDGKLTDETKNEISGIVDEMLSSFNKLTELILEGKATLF
Protocol: In-vitro sMAT assay: In vitro sMAT reactions were conducted in a volume of 50 μl with 2 mM S/Se-alkylated analog, 1 mM ATP and 5 μM purified sMAT in 25 mM Tris buffer pH 8.0, 5 mM MgCl2, 50 mM KCl for 4 h at 65° C. Reactions were quenched by adding an equal volume of methanol followed by centrifugation (10,000×g for 15 min) to remove the precipitated protein and product formation for each reaction was subsequently analyzed by reverse phase HPLC (RP-HPLC) using method described below. For each reaction, percent yield was based upon the integration of species at 254 nm and calculated by dividing the integrated area of product and/or decomposed product by the sum of integrated area of product and/or decomposed product and the remaining substrate. The assays were repeated twice under identical conditions, and Table 4 (and FIG. 17) represents an average value of two assays. The inclusion of adenine and 5′-R-thio-5′-adenosine in these calculations is based upon the established SAM and ATP chemical decomposition pathways which indicate adenine and 5′-R-thio-5′-adenosine to only derive from SAM (not ATP). All putative products were subsequently confirmed by high resolution electrospray ionization (ESI) mass spectra with positive (+) and/or negative (−) mode.
RP-HPLC method: Reactions were quenched by the addition of equal volume of methanol followed by centrifugation at 10,000 g for 15 min to remove precipitated protein before applying on an analytical Varian ProStar HPLC [Luna C18 column, 5 μm, 4.6 mm×250 mm; Phenomenex, Torrance, Calif., USA; gradient of 10% B to 40% B over 15 min, 40% B to 75% B over 5 min (A=10 mM NaH2PO4, 5 mM octane sulfonic acid, pH was adjusted to 3.5 using phosphoric acid; B=acetonitrile) flow rate=1 mL min^−1; A254].

[3] = target: T2, Methanocaldococcus jannaschii MAT (mMAT) (Methanocaldococcus jannaschii, UniProt Q58605); conditions: 2 mM Met analog, 1 mM ATP, 5 μM MAT, pH 8, 4 h, 65° C.; average of two assays
T2 sequence (Q58605 1-406): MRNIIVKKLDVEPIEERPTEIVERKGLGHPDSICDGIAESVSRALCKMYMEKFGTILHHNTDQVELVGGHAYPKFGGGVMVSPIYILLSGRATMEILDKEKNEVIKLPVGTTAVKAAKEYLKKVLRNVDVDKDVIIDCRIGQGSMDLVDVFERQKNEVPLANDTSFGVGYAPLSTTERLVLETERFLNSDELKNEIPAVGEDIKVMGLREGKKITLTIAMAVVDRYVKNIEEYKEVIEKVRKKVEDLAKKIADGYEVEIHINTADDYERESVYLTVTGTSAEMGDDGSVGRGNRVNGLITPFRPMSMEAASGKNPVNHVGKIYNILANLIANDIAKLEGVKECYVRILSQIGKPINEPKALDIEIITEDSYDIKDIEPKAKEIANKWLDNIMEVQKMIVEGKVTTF
Protocol: as §1, with “intermediate.” for “intermediate. Putative SAM analog and SAM-derived degradative product formation was subsequently confirmed via high-resolution mass spectrometry (HRMS) analysis for all positive reactions (see Table 2).”
as §2
as §3, with “The” for “In vitro MAT reactions were conducted in a volume of 50 μl with 2 mM S/Se-alkylated analog (compounds 2-30), 1 mM ATP and 5 μM purified MAT in 25 mM Tris buffer pH 8.0, 5 mM MgCl2, 50 mM KCl for 4 h. The”

[4] = target: human MAT II catalytic alpha subunit alone (hMAT2A) (Homo sapiens, UniProt P31153); assay: MAT assay, turnover of S/Se-Met analogs to S(Se)AM analogs (RP-HPLC end point); conditions: 2 mM Met analog, 1 mM ATP, 5 μM MAT, pH 8, 4 h, 37° C.; average of two assays
Protocol: as §1, with “intermediate.” for “intermediate. Putative SAM analog and SAM-derived degradative product formation was subsequently confirmed via high-resolution mass spectrometry (HRMS) analysis for all positive reactions (see Table 2).”
as §2
as §3, with “The” for “In vitro MAT reactions were conducted in a volume of 50 μl with 2 mM S/Se-alkylated analog (compounds 2-30), 1 mM ATP and 5 μM purified MAT in 25 mM Tris buffer pH 8.0, 5 mM MgCl2, 50 mM KCl for 4 h. The”

[5] = target: human MAT I catalytic subunit alpha (hMAT1A) (Homo sapiens, UniProt Q00266); assay: as above; conditions: 2 mM Met analog, 1 mM ATP, 5 μM MAT, pH 8, 4 h, 37° C.; average of two assays
Protocol: as §1, with “intermediate.” for “intermediate. Putative SAM analog and SAM-derived degradative product formation was subsequently confirmed via high-resolution mass spectrometry (HRMS) analysis for all positive reactions (see Table 2).”
as §2
as §3, with “The” for “In vitro MAT reactions were conducted in a volume of 50 μl with 2 mM S/Se-alkylated analog (compounds 2-30), 1 mM ATP and 5 μM purified MAT in 25 mM Tris buffer pH 8.0, 5 mM MgCl2, 50 mM KCl for 4 h. The”

[6] = target: human MAT II catalytic alpha and regulatory beta subunit (hMAT2) (Homo sapiens, UniProt P31153); assay: as above; conditions: 2 mM Met analog, 1 mM ATP, 5 μM MAT, pH 8, 4 h, 37° C.; average of two assays
Protocol: as §1, with “intermediate.” for “intermediate. Putative SAM analog and SAM-derived degradative product formation was subsequently confirmed via high-resolution mass spectrometry (HRMS) analysis for all positive reactions (see Table 2).”
as §2
as §3, with “The” for “In vitro MAT reactions were conducted in a volume of 50 μl with 2 mM S/Se-alkylated analog (compounds 2-30), 1 mM ATP and 5 μM purified MAT in 25 mM Tris buffer pH 8.0, 5 mM MgCl2, 50 mM KCl for 4 h. The”

Row | Compound | Percentage Turn-over eMAT [1] [%] | Percentage Turn-Over (sMAT) [2] [%] | Percentage Turn-over mMAT [3] [%] | Percentage Turn-over hMAT2A [4] [%] | Percentage Turn-over hMAT1A [5] [%] | Percentage Turn-over hMAT2 [6] [%]
1 | C#CCSCC[C@H](N)C(=O)O [compound 4, (2S)-2-amino-4-(prop-2-yn-1-ylsulfanyl)butanoic acid] | 2 | 36 | 6 | 6 | 2 | 20
2 | N#CCSCC[C@H](N)C(=O)O [compound 6, (2S)-2-amino-4-[(cyanomethyl)sulfanyl]butanoic acid] | 2 | 68 | 6 | 13 | 2 | 20
3 | C=CCSCC[C@H](N)C(=O)O [compound 7, (2S)-2-amino-4-(prop-2-en-1-ylsulfanyl)butanoic acid] | 2 | 27 | 16 | 50 | 5 | 52
4 | CCCSCC[C@H](N)C(=O)O [compound 8, (2S)-2-amino-4-(propylsulfanyl)butanoic acid] | 2 | 44 | 21 | 54 | 5 | 55
5 | CC(C)SCC[C@H](N)C(=O)O [compound 9, (2S)-2-amino-4-(propan-2-ylsulfanyl)butanoic acid] | 0 | 53 | 8 | 2 | 2 | 2
6 | C#CCCSCC[C@H](N)C(=O)O [compound 10, (2S)-2-amino-4-(but-3-yn-1-ylsulfanyl)butanoic acid] | 0 | 30 | 16 | 12 | 0 | 40
7 | C/C=C/CSCC[C@H](N)C(=O)O [compound 11, (2S)-2-amino-4-[(2E)-but-2-en-1-ylsulfanyl]butanoic acid] | 2 | 27 | 30 | 5 | 2 | 25
8 | C=C(C)CSCC[C@H](N)C(=O)O [compound 12, (2S)-2-amino-4-[(2-methylprop-2-en-1-yl)sulfanyl]butanoic acid] | 0 | 15 | 6 | 2 | 0 | 2
9 | CCCCSCC[C@H](N)C(=O)O [compound 13, (2S)-2-amino-4-(butylsulfanyl)butanoic acid] | 0 | 27 | 12 | 12 | 0 | 13
10 | CC(C)CSCC[C@H](N)C(=O)O [compound 14, (2S)-2-amino-4-[(2-methylpropyl)sulfanyl]butanoic acid] | 0 | 57 | 1 | 0 | 0 | 0
11 | C=C/C=C/CSCC[C@H](N)C(=O)O [compound 16, (2S)-2-amino-4-[(2E)-penta-2,4-dien-1-ylsulfanyl]butanoic acid] | 4 | 14 | 8 | 4 | 2 | 44
12 | [N-]=[N+]=NCCSCC[C@H](N)C(=O)O [compound 17, (2S)-2-amino-4-[(2-azidoethyl)sulfanyl]butanoic acid] | 0 | 50 | 29 | 18 | 4 | 49

Reference: patent US9879043B1, “Synthesis of non-natural cofactor analogs of S-adenosyl-L-methionine using methionine adenosyltransferase” (University of Kentucky Research Foundation, priority 2013, dated 2018)
